Measurements reported in ChEMBL document CHEMBL1201862, “PubChem BioAssay data set” (2004).
Activity calls are given as the source filed them.

Columns and labels:
[1] = target: T1, Calpain-2 catalytic subunit (Sus scrofa, UniProt P43367); experiment: pig calpain II inhibitor potency, dose response, biochemical, fluorogenic peptide substrate (AID 1420); type: functional
T1 sequence (P43367 whole entry): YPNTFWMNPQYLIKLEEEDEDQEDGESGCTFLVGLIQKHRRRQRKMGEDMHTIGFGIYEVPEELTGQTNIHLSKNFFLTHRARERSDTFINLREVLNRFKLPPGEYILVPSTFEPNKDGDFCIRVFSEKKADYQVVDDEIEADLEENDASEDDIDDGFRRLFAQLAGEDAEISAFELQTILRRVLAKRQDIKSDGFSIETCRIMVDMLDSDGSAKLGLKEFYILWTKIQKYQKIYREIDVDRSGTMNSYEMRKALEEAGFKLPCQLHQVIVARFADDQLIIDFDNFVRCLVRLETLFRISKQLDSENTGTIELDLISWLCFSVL

INS1 = experiment: beta cell apoptosis inhibitors, cytokine rescue, dose response, luminescence, retest (AID 449756); type: functional, cell-based; details: Rattus norvegicus;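 further: cell death triggered by IL-1 beta plus TNF-alpha plus IFN-gamma mixture; protective hits raise ATP signal compared with cytokine alone wells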
[2] = target: T2, Rac GTPase-activating protein 1 (Homo sapiens, UniProt Q9H0H5); experiment: MgcRacGAP GTPase-activating activity inhibitors, confirmation, biochemical, ADP Hunter fluorescence, primary and confirmatory (AID 624330); type: functional
T2 sequence (Q9H0H5 whole entry): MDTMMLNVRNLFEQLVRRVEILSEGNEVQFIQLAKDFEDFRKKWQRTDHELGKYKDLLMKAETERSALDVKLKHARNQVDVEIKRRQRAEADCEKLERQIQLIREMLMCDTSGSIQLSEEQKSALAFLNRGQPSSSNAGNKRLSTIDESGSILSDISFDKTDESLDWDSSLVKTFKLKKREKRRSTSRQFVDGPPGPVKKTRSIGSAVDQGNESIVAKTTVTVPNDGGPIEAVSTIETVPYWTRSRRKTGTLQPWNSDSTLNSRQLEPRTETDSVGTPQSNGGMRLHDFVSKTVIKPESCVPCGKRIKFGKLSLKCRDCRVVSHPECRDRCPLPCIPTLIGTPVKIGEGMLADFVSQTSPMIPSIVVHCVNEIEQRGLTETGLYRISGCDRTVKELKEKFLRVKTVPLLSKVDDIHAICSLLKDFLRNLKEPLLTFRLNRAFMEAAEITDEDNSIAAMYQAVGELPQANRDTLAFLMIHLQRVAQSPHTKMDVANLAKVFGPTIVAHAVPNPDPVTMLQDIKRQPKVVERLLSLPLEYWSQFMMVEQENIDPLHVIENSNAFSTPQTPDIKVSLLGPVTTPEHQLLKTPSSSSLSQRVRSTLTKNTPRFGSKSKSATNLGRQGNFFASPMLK

[3] = cytotoxicity toward DRD oncogenic fibroblasts, dose response, cell-based, non-viral oncogenic, luminescence (AID 1934); type: functional; details: Homo sapiens
[4] = target: T3, Replicative DNA helicase DnaB (Mycobacterium tuberculosis, UniProt P9WMR3); experiment: DnaB intein splicing inhibitors, dose response, biochemical, cell-free fluorescence (AID 449749); type: functional
T3 sequence (P9WMR3 whole entry): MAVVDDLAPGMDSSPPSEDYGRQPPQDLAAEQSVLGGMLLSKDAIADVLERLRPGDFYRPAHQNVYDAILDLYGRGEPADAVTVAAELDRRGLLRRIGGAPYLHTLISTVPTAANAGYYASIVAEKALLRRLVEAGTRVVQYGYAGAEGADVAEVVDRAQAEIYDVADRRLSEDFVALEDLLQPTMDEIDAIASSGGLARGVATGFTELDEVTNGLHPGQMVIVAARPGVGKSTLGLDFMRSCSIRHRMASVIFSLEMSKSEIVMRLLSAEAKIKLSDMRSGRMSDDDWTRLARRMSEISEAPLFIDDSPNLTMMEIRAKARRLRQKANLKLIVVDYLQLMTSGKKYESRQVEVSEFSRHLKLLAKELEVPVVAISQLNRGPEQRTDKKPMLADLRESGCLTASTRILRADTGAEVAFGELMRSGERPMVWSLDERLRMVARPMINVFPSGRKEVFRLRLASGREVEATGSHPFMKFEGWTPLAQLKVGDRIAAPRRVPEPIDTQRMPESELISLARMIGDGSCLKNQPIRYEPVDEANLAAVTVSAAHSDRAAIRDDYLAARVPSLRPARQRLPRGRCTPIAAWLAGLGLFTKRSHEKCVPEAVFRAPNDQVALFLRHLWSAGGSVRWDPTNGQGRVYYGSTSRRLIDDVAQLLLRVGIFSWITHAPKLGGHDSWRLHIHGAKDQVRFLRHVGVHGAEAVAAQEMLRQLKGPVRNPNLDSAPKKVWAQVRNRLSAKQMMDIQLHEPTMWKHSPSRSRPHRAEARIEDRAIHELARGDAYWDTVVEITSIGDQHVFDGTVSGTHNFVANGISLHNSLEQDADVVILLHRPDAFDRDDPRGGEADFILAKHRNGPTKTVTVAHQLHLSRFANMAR

BJ [5] = experiment: cytotoxicity toward BJ-TERT-LT-ST fibroblasts, dose response, cell-based, RAS-independent, luminescence (AID 1935); type: functional; details: Homo sapiens;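 further: BJ fibroblasts immortalized with TERT plus LT and ST oncogenes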
BJ [6] = experiment: cells; type: functional, cell-based; details: Homo sapiens
Protein RecA = target: T4, Protein RecA (Mycobacterium tuberculosis, UniProt P9WHJ3); experiment: Fluorescence Cell-Free Homogeneous Dose Retest to Identify Inhibitors of RecA-Intein Splicing Activity. [Related pubchem assays (depositor defined):AID2097, AID2223, AID489010, AID492950]; type: functional
T4 sequence (P9WHJ3 whole entry): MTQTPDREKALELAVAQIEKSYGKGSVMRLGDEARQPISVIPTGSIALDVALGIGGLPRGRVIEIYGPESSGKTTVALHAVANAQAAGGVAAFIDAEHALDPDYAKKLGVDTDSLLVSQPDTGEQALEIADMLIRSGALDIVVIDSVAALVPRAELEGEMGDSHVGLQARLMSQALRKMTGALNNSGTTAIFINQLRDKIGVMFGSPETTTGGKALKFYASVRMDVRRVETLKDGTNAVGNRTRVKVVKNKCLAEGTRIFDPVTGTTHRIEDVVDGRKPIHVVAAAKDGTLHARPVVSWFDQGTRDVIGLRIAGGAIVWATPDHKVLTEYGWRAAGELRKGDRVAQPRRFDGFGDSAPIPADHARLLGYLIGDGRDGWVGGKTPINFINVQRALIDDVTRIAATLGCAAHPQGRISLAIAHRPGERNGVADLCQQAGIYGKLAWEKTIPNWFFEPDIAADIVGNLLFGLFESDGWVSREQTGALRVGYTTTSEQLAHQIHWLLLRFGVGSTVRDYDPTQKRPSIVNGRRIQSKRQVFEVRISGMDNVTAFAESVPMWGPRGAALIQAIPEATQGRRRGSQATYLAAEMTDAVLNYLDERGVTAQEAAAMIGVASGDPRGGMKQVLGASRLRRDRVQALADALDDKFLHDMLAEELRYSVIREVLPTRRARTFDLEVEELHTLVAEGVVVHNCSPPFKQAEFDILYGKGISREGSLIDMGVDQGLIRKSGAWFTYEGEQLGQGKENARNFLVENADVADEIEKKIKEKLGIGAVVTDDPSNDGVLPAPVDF

BJ [7] = experiment: cytotoxicity toward BJ-TERT fibroblasts, dose response, cell-based, RAS-independent, luminescence (AID 1933); type: functional; details: Homo sapiens
[8] = target: T5, Heat shock factor protein 1 (Mus musculus, UniProt P38532); experiment: HSF1 potentiators in luciferase reporter cells, confirmation, cell-based, NIH3T3, luminescence, dose retest (AID 435004); type: functional;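 further: stress induced by proteasome inhibitor MG132 added 30 min after compound; luciferase reporter driven by HSF1 response element in NIH3T3 cells; actives raise luminescence as potentiators of the MG132 stress response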
T5 sequence (P38532 whole entry): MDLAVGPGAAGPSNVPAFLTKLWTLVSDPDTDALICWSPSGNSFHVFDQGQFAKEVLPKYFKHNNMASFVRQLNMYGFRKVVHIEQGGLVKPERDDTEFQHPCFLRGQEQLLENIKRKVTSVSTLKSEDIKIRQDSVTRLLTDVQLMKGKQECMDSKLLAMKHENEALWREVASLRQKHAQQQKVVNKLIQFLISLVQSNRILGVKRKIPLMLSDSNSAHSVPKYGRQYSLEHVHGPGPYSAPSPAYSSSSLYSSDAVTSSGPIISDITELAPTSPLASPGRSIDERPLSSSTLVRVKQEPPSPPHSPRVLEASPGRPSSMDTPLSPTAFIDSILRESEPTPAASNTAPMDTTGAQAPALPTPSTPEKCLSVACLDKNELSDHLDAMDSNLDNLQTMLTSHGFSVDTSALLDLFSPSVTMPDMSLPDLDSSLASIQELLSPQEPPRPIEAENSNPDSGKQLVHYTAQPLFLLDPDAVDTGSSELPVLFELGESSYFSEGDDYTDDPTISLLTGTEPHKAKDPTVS

[9] = target: Heat shock protein HSP 90-alpha (Homo sapiens, UniProt P07900); type: functional, organism-based
[10] = cytotoxicity toward NIH3T3 fibroblasts, dose response, counter-screen, cell-based, ATP luminescence, mouse fibroblasts (AID 2010); type: functional;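 further: cells exposed to compound for about 90 hours before reading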
[11] = inhibitors of intracellular T. cruzi replication, confirmation, NIH3T3 host cells, beta-gal luminescence (AID 2044); type: functional, cell-based;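 further: intracellular parasites grown in NIH/3T3 mouse fibroblasts as host cells; luminescent beta-galactosidase reporter signal from transgenic T. cruzi replicating inside host cells; inhibitors lower the luminescence signal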
Large T antigen = Large T antigen (Simian virus 40, UniProt P03070); type: functional, Betapolyomavirus macacae;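 further: Confirmatory-stage PubChem screen for compounds that inhibit SV40 T antigen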
[12] = Luminescence Cell-Based Dose Response HTS to Identify Inhibitors of 5'UTR Stem-Loop Driven Prion Protein mRNA Translation in H4 Neuroglioblastoma Cells. [Related pubchem assays: 1827 (Project Summary), 1813 (Primary HTS)]; type: functional
[13] = inhibitors of firefly luciferase expression or activity, dose response, H4 neuroglioma cells, luminescence (AID 1990); type: functional, cell-based
[14] = system: Streptococcus sp. 'group A'; experiment: growth inhibition of control SK(-) GAS strain, dose response, counter-screen for streptokinase expression inhibitor project, luminescence, kanamycin, BacTiterGlo, confirmation (AID 1900); type: functional, organism-based
Streptokinase A = target: T6, Streptokinase A (Streptococcus pyogenes serotype M1, UniProt P10520); experiment: S. pyogenes streptokinase expression inhibitors, potency, dose response, plasminogen activation absorbance, OD405 (AID 1914); type: functional, Streptococcus pyogenes M1 GAS;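 further: secreted streptokinase activity via plasminogen activation per viability signal from cell pellet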
T6 sequence (P10520 whole entry): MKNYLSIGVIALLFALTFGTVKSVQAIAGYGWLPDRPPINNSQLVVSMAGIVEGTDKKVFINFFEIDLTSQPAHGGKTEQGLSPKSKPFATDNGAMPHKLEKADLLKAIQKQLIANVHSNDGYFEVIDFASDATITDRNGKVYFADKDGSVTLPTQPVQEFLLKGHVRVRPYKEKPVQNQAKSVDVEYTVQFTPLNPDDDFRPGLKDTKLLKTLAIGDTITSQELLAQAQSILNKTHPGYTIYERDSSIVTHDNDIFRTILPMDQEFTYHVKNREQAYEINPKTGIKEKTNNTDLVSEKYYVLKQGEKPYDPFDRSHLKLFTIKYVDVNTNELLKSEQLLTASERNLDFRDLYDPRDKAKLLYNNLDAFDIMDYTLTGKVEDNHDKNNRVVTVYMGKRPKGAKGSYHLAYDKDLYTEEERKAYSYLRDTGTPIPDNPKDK

Streptococcus = experiment: Group A Streptococcus viability loss, dose response, counter-screen for streptokinase expression inhibitor project, luminescence, BacTiterGlo (AID 1915); type: functional, organism-based;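 further: potency for reduction of bacterial viability or growth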
[15] = inhibitors of SNCA 5'UTR-driven reporter translation, confirmation, H4 neuroglioma cells, luminescence (AID 1988); type: functional, cell-based

Chain of Large T antigen (P03070 whole entry): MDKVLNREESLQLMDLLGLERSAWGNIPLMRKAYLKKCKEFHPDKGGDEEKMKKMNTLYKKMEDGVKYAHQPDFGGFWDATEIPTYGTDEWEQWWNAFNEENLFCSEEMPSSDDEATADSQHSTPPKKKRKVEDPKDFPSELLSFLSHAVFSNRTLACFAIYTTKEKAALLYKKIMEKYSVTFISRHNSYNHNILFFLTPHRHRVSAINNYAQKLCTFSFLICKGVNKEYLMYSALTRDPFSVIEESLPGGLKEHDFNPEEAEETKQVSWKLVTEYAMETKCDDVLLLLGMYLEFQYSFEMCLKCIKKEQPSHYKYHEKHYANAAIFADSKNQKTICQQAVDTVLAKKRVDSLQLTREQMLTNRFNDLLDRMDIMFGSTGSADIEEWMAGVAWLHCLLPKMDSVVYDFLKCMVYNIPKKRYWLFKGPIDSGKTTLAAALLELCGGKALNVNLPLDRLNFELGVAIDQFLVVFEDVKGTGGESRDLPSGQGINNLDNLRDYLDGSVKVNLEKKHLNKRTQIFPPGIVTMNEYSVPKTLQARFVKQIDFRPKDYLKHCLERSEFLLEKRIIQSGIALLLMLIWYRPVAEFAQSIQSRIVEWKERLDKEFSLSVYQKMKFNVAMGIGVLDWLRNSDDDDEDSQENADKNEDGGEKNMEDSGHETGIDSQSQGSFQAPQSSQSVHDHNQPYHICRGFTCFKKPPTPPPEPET

Oc1nc(SCc2ccccc2Cl)nc(-c2ccc(Cl)cc2)n1
IC50 [1]: 4.51 µM (not active)

CC1CCN([S+]([O-])C23CC4CC(CC(C4)C2)C3)CC1 (stereo unspecified)
IC50 [1]: > 50 µM (not active)

CCCCCCCCCCOC(=O)C[N+](C)(C)C/C=C(/C)Cl
AC50 (INS1): 13.3 µM (active)

COc1cc(CN(C)CCc2ccccn2)cc(OC)c1OC
IC50 [2]: 101 µM (active)

Cn1nnnc1SC(C(=O)Nc1cccc(C(F)(F)F)c1)c1ccccc1 (stereo unspecified)
IC50 [1]: 16.4 µM (active)

Cc1[nH]c2ccccc2c1CCN(Cc1cccnc1)C(S)=Nc1ccc(F)cc1
IC50 [1]: > 50 µM (not active)

ClC(Cl)(Cl)c1nc2ccccc2n2nncc12
EC50 [3]: 13.1 µM (active) | AC50 [4]: 39.3 µM (active) | EC50 (BJ [5]): 18.7 µM (active) | EC50 (BJ [6]): 13.7 µM (active) | EC50 (Protein RecA): 6.03 µM (active) | EC50 (BJ [7]): 6.96 µM (inconclusive) | EC50 [8]: 5.46 µM (active)

N#CC(c1ccncc1)(c1ncc(C(F)(F)F)cc1Cl)N1CCOCC1 (stereo unspecified)
IC50 [1]: 19.2 µM (not active)

OC(COc1ccccc1)Cn1c2ccccc2c2ccccc21 (stereo unspecified)
IC50 [1]: 7.48 µM (not active)

COc1ccc(NC(=O)CN2CCN(c3nc(-c4ccc(F)cc4)cs3)CC2)c(OC)c1
IC50 [1]: 5.73 µM (not active)

C=CCNc1ccc(N2C(=O)C3CCC(C)CC3C2=O)cc1[N+](=O)[O-] (stereo unspecified)
IC50 [1]: 4.48 µM (not active)

Oc1ccc(-c2csc(Nc3ccccn3)n2)cc1
IC50 [2]: 65.8 µM (active)

O=c1cc(-c2ccccc2)cc(-c2ccccc2)n1O
AC50 [9]: 1.13 µM (active)

Cc1cccc(-c2noc(CN(C(=O)/C=C/c3ccccc3Cl)C(C)C)n2)c1
IC50 [1]: 13.3 µM (not active)

NS(=O)(=O)c1cccc(NC(=O)CN2CCC(Cc3ccccc3)CC2)c1
IC50 [1]: 25.9 µM (not active)

Cc1ccnc(NC(=O)c2ccc([N+](=O)[O-])s2)c1
AC50 (INS1): 6.55 µM (active) | EC50 [10]: > 60 µM (not active) | EC50 [11]: 0.743 µM (active)

COC(=O)c1ccc(NC2(C#N)C(=O)Nc3ccccc32)cc1 (stereo unspecified)
IC50 [1]: > 50 µM (not active)

O=C(CNC1CCCCCC1)Nc1ccccc1N1CCOCC1
IC50 [2]: 177 µM (active)

COC(C(=O)N/N=C(\C)CC(=O)Nc1ccc(N(C)C)cc1)c1ccccc1 (stereo unspecified)
IC50 [2]: 50.3 µM (active) | IC50 (Large T antigen): 11.1 µM (active)

COc1cc(/C=N/NC(=O)CCc2ccccc2)ccc1O
IC50 [2]: 28.7 µM (active)

O=C(N/N=C/c1cc([N+](=O)[O-])ccc1O)c1cccc(NC(=O)c2cccc(Cl)c2)c1
EC50 [12]: 13.3 µM (active) | EC50 [13]: 12.7 µM (active) | AC50 (INS1): 2.18 µM (active) | EC50 [14]: 5.18 µM (active) | EC50 (Streptokinase A): > 150 µM (not active) | EC50 (Streptococcus): 18.7 µM (active) | EC50 [15]: 10.6 µM (active)
